# Laboratory results: patent US12655116B2, “Substituted isophthalic acid diamides” (Bayer Aktiengesellschaft, priority 2020, dated 2026)
# Assays:
# [1] = tested on: AMARE; test: Post-emergence herbicidal action against AMARE; assay type: in vivo, Amaranthus retroflexus; settings: 20 g/ha, visual assessment about 3 weeks after treatment, 100% = plants have died, 0% = like control plants
# Summary of the method: (§1)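 A WP or EC formulation diluted in water with 0.2% wetting agent was sprayed at 600 to 800 l/ha onto one-leaf-stage plants grown in sandy loam. About 3 weeks later, action was rated visually in percent, 100% being dead plants.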
# [2] = tested on: ECHCG; test: Pre-emergence herbicidal action against ECHCG; assay type: in vivo, Echinochloa crus-galli
# Summary of the method: (§2)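 Greenhouse pots of sandy loam held seeds covered with soil, onto which the compound was applied before emergence. An aqueous suspension or emulsion of WP or EC was used at 600 to 800 l/ha with 0.2% wetting agent. Percent damage was judged visually at 3 weeks.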
# [3] = tested on: ECHCG; test: Post-emergence herbicidal action against ECHCG; assay type: in vivo, Echinochloa crus-galli
# Summary of the method: as §1
# [4] = tested on: POLCO; test: Pre-emergence herbicidal action against POLCO; assay type: in vivo, Polygonum convolvulus; settings: dosage 80 g/ha
# Summary of the method: as §2
# [5] = tested on: AMARE; test: Pre-emergence herbicidal action against AMARE; assay type: in vivo, Amaranthus retroflexus
# Summary of the method: as §2
# [6] = tested on: ABUTH; test: Post-emergence herbicidal action against ABUTH; assay type: in vivo, Abutilon theophrasti; settings: visual assessment about 3 weeks after treatment vs untreated controls
# Summary of the method: as §1
# [7] = tested on: PHBPU; test: Post-emergence herbicidal action against PHBPU; assay type: in vivo, Pharbitis purpurea
# Summary of the method: as §1
# [8] = tested on: SETVI; test: Pre-emergence herbicidal action against SETVI; assay type: in vivo, Setaria viridis; settings: dosage 80 g/ha
# Summary of the method: as §2
# [9] = tested on: VERPE; test: Pre-emergence herbicidal action against VERPE; assay type: in vivo, Veronica persica; settings: dosage 80 g/ha
# Summary of the method: as §2
# [10] = tested on: ALOMY; test: Pre-emergence herbicidal action against ALOMY; assay type: in vivo, Alopecurus myosuroides; settings: pre-emergence
# Summary of the method: as §2
# [11] = tested on: VIOTR; test: Pre-emergence herbicidal action against VIOTR; assay type: in vivo, Viola tricolor
# Summary of the method: as §2
# [12] = tested on: DIGSA; test: Pre-emergence herbicidal action against DIGSA; assay type: in vivo, Digitaria sanguinalis
# Summary of the method: as §2
# [13] = tested on: VERPE; test: Post-emergence herbicidal action against VERPE; assay type: in vivo, Veronica persica; settings: 20 g/ha
# Summary of the method: as §1
# [14] = tested on: ABUTH; test: Pre-emergence herbicidal action against ABUTH; assay type: in vivo, Abutilon theophrasti
# Summary of the method: as §2
# [15] = tested on: LOLRI; test: Pre-emergence herbicidal action against LOLRI; assay type: in vivo, Lolium rigidum; settings: 80 g/ha
# Summary of the method: as §2
# [16] = tested on: MATIN; test: Pre-emergence herbicidal action against MATIN; assay type: in vivo, Matricaria inodora
# Summary of the method: as §2
# [17] = tested on: VIOTR; test: Post-emergence herbicidal action against VIOTR; assay type: in vivo, Viola tricolor
# Summary of the method: as §1
# [18] = tested on: ALOMY; test: Post-emergence herbicidal action against ALOMY; assay type: in vivo, Alopecurus myosuroides; settings: visual assessment about 3 weeks after treatment vs untreated controls
# Summary of the method: as §1
# [19] = tested on: DIGSA; test: Post-emergence herbicidal action against DIGSA; assay type: in vivo, Digitaria sanguinalis; settings: 20 g/ha
# Summary of the method: as §1
# [20] = tested on: SETVI; test: Post-emergence herbicidal action against SETVI; assay type: in vivo, Setaria viridis; settings: dosage 20 g/ha
# Summary of the method: as §1
# [21] = tested on: MATIN; test: Post-emergence herbicidal action against MATIN; assay type: in vivo, Matricaria inodora
# Summary of the method: as §1
# [22] = tested on: AVEFA; test: Pre-emergence herbicidal action against AVEFA; assay type: in vivo, Avena fatua; settings: pre-emergence
# Summary of the method: as §2
# [23] = tested on: PHBPU; test: Pre-emergence herbicidal action against PHBPU; assay type: in vivo, Pharbitis purpurea; settings: dosage 80 g/ha
# Summary of the method: as §2
# [24] = 20 g/ha, scored visually after 3 weeks vs untreated controls, 100% = plants have died, 0% = like control plants
# [25] = 80 g/ha, scored visually after 3 weeks vs untreated controls (100% = plants have died, 0% = like control plants)
# [26] = dosage 20 g/ha, scored visually after 3 weeks vs untreated controls, 100% = plants have died, 0% = like control plants
# [27] = Tripleurospermum inodorum, 504 h, dosage 20 g/ha
smiles,measurement,setting,value
Cc1c(C(=O)Nc2nnnn2C)ccc(C(F)F)c1C(=O)NCC1CC1 [Example 1-47],Post-emergence action at 20 g/ha against AMARE in %,[1],90%
same,Pre-emergence action against ECHCG in %,[2]; 80 g/ha,100%
same,Post-emergence action against ECHCG in %,[3]; dosage 5 g/ha,90%
same,Post-emergence action against ECHCG in %,[3]; dosage 20 g/ha,90%
same,Pre-emergence action against POLCO in %,[4],100%
same,Pre-emergence action against AMARE in %,[5]; [24],100%
same,Pre-emergence action against AMARE in %,[5]; [25],100%
same,Post-emergence action against ABUTH in %,[6]; dosage 20 g/ha,80%
same,Post-emergence action against PHBPU in %,[7]; dosage 5 g/ha,80%
same,Post-emergence action against PHBPU in %,[7]; dosage 20 g/ha,90%
same,Pre-emergence action against SETVI in %,[8],100%
same,Pre-emergence action against VERPE in %,[9],100%
same,Pre-emergence action against ALOMY (herbicidal activity),[10]; [25],90%
same,Pre-emergence action against VIOTR in %,[11]; dosage 80 g/ha,100%
same,Pre-emergence action against DIGSA in %,[12]; dosage 20 g/ha,100%
same,Pre-emergence action against DIGSA in %,[12]; dosage 80 g/ha,100%
same,Post-emergence action against VERPE in %,[13],80%
same,Pre-emergence action against ABUTH (herbicidal activity),[14]; [25],100%
same,Pre-emergence action against ABUTH (herbicidal activity in percent),[14]; [26],100%
same,Pre-emergence action against LOLRI in %,[15],80%
same,Pre-emergence action against MATIN in %,[16]; dosage 20 g/ha,80%
same,Pre-emergence action against MATIN in %,[16]; dosage 80 g/ha,100%
same,Post-emergence action against VIOTR in %,[17]; 20 g/ha,80%
same,Post-emergence action against ALOMY in %,[18]; dosage 5 g/ha,80%
same,Post-emergence action against ALOMY in %,[18]; dosage 20 g/ha,90%
same,Post-emergence action against DIGSA,[19],90%
same,Post-emergence action against SETVI in %,[20],80%
CCCNC(=O)c1c(C(F)F)ccc(C(=O)Nc2nnnn2C)c1C [Example 1-345],pest or weed control at 20 g/ha,"[1]; Amaranthus retroflexus, 504 h",100%
same,pest or weed control at 20 g/ha,"[2]; Echinochloa crus-galli, 504 h, 20 g/ha",90%
same,pest or weed control at 80 g/ha,"[2]; Echinochloa crus-galli, 504 h, 80 g/ha",100%
same,pest or weed control at 20 g/ha,[21]; [27],80%
same,pest or weed control at 20 g/ha,"[3]; Echinochloa crus-galli, 504 h, dosage 20 g/ha",90%
same,pest or weed control at 80 g/ha,"[4]; Fallopia convolvulus, 504 h",90%
same,pest or weed control at 20 g/ha,"[5]; Amaranthus retroflexus, 504 h, 20 g/ha, scored visually after 3 weeks vs untreated controls, 100% = plants have died, 0% = like control plants",100%
same,pest or weed control at 80 g/ha,"[5]; Amaranthus retroflexus, 504 h, 80 g/ha, scored visually after 3 weeks vs untreated controls, 100% = plants have died, 0% = like control plants",100%
same,pest or weed control at 5 g/ha,"[6]; Abutilon theophrasti, 504 h, dosage 5 g/ha",80%
same,pest or weed control at 20 g/ha,"[6]; Abutilon theophrasti, 504 h, dosage 20 g/ha",90%
same,pest or weed control at 5 g/ha,"[7]; Ipomoea purpurea, 504 h, dosage 5 g/ha",80%
same,pest or weed control at 20 g/ha,"[7]; Ipomoea purpurea, 504 h, dosage 20 g/ha",80%
same,pest or weed control at 80 g/ha,"[8]; Setaria viridis, 504 h",100%
same,pest or weed control at 80 g/ha,"[9]; Veronica persica, 504 h",80%
same,pest or weed control at 80 g/ha,"[10]; Alopecurus myosuroides, 504 h, 80 g/ha, scored visually after 3 weeks vs untreated controls (100% = plants have died, 0% = like control plants)",90%
same,pest or weed control at 20 g/ha,"[10]; Alopecurus myosuroides, 504 h, 20 g/ha, scored visually after 3 weeks, 100% = plants have died, 0% = like control plants",80%
same,pest or weed control at 80 g/ha,"[11]; Viola tricolor, 504 h, dosage 80 g/ha",100%
same,pest or weed control at 20 g/ha,"[13]; Veronica persica, 504 h",90%
same,pest or weed control at 80 g/ha,"[14]; Abutilon theophrasti, 504 h, 80 g/ha, scored visually after 3 weeks vs untreated controls (100% = plants have died, 0% = like control plants)",100%
same,pest or weed control at 20 g/ha,"[14]; Abutilon theophrasti, 504 h, dosage 20 g/ha, scored visually after 3 weeks vs untreated controls, 100% = plants have died, 0% = like control plants, read-out: Pre-emergence action against ABUTH (herbicidal activity in percent)",100%
same,pest or weed control at 80 g/ha,"[15]; Lolium rigidum, 504 h",80%
same,pest or weed control at 20 g/ha,[16]; [27],100%
same,pest or weed control at 80 g/ha,"[16]; Tripleurospermum inodorum, 504 h, dosage 80 g/ha",100%
same,pest or weed control at 5 g/ha,"[17]; Viola tricolor, 504 h, 5 g/ha",90%
same,pest or weed control at 20 g/ha,"[17]; Viola tricolor, 504 h, 20 g/ha",100%
same,pest or weed control at 5 g/ha,"[18]; Alopecurus myosuroides, 504 h, dosage 5 g/ha",80%
same,pest or weed control at 20 g/ha,"[18]; Alopecurus myosuroides, 504 h, dosage 20 g/ha",90%
same,pest or weed control at 20 g/ha,"[20]; Setaria viridis, 504 h",90%
same,pest or weed control at 80 g/ha,"[22]; Avena fatua, 504 h, 80 g/ha",90%
same,pest or weed control at 20 g/ha,"[22]; Avena fatua, 504 h, 20 g/ha, scored visually after 3 weeks, 100% = plants have died, 0% = like control plants",80%
CCn1nnnc1NC(=O)c1ccc(C(F)(F)F)c(C(=O)NCC2CC2)c1Cl [Example 2-132],Post-emergence action at 20 g/ha against AMARE in %,[1],90%
same,Pre-emergence action against ECHCG in %,[2]; 80 g/ha,100%
same,Post-emergence action against MATIN in %,[21]; dosage 5 g/ha,80%
same,Post-emergence action against MATIN in %,[21]; dosage 20 g/ha,80%
same,Post-emergence action against ECHCG in %,[3]; dosage 20 g/ha,90%
same,Pre-emergence action against POLCO in %,[4],80%
same,Pre-emergence action against AMARE in %,[5]; [24],100%
same,Pre-emergence action against AMARE in %,[5]; [25],100%
same,Post-emergence action against ABUTH in %,[6]; dosage 20 g/ha,80%
same,Pre-emergence action against SETVI in %,[8],100%
same,Pre-emergence action against ALOMY (herbicidal activity),[10]; [25],90%
same,Pre-emergence action against VIOTR in %,[11]; dosage 20 g/ha,100%
same,Pre-emergence action against VIOTR in %,[11]; dosage 80 g/ha,100%
same,Pre-emergence action against DIGSA in %,[12]; dosage 20 g/ha,80%
same,Pre-emergence action against DIGSA in %,[12]; dosage 80 g/ha,100%
same,Pre-emergence action against PHBPU in %,[23],90%
same,Pre-emergence action against ABUTH (herbicidal activity),[14]; [25],100%
same,Pre-emergence action against ABUTH (herbicidal activity in percent),[14]; [26],100%
same,Pre-emergence action against LOLRI in %,[15],90%
same,Pre-emergence action against MATIN in %,[16]; dosage 20 g/ha,100%
same,Pre-emergence action against MATIN in %,[16]; dosage 80 g/ha,100%
same,Post-emergence action against VIOTR in %,[17]; 20 g/ha,90%
same,Post-emergence action against DIGSA,[19],80%
same,Post-emergence action against SETVI in %,[20],80%
same,Pre-emergence action against AVEFA in %,[22]; 80 g/ha,90%
CCn1nnnc1NC(=O)c1ccc(C(F)(F)F)c(C(=O)NCC(F)F)c1Br [Example 2-212],Pre-emergence action against ECHCG in %,[2]; 80 g/ha,90%
same,Post-emergence action against ECHCG in %,[3]; dosage 20 g/ha,80%
same,Pre-emergence action against POLCO in %,[4],80%
same,Pre-emergence action against AMARE in %,[5]; [25],100%
same,Pre-emergence action against SETVI in %,[8],100%
same,Pre-emergence action against ALOMY (herbicidal activity),[10]; [25],100%
same,Pre-emergence action against VIOTR in %,[11]; dosage 80 g/ha,100%
same,Pre-emergence action against DIGSA in %,[12]; dosage 80 g/ha,100%
same,Pre-emergence action against PHBPU in %,[23],80%
same,Pre-emergence action against ABUTH (herbicidal activity),[14]; [25],100%
same,Pre-emergence action against LOLRI in %,[15],90%
same,Pre-emergence action against MATIN in %,[16]; dosage 80 g/ha,100%
same,Post-emergence action against DIGSA,[19],100%
same,Pre-emergence action against AVEFA in %,[22]; 80 g/ha,90%
